The results in this text go back to PubChem BioAssay AID330 (DTP/NCI, 2004).

“And” between values parts separate entries of the source, which are not always exact repeats. Equal entries are not always repeated. Toxic doses and inconclusive results are not listed. Peptide text beside a SMILES is read from it. * marks the point of attachment. Cbz = O=C(OCc1ccccc1)*; OBn = c1ccc(CO*)cc1

The subject of the experiment is P388 leukemia ip, CD2F1 mice, survival T/C. The experiment in a line: NCI In Vivo Anticancer Drug Screen. Data for tumor model P388 Leukemia (intraperitoneal) in CD2F1 (CDF1) mice. The following applies: endpoint: median survival time, higher = longer survival. The gist of the method: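 Mice carrying the transplanted tumor received test compound or vehicle. Survival was recorded in each group, and the value is the treated-group measurement divided by that of the vehicle-treated control group.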

Where [1] appears, read: dose: 100.0 mg/kg/injection, schedule: Q01DX009 (ip), vehicle: Klucel (hydroxypropylcellulose) (HPC).
[2] abbreviates: dose: 200.0 mg/kg/injection, schedule: Q01DX009 (ip), vehicle: Klucel (hydroxypropylcellulose) (HPC).
Setting [3] is: dose: 50.0 mg/kg/injection, schedule: Q01DX005 (ip), vehicle: Klucel (hydroxypropylcellulose) (HPC).
The mark [4] stands for this setting: dose: 100.0 mg/kg/injection, schedule: Q01DX005 (ip), vehicle: Klucel (hydroxypropylcellulose) (HPC).
Setting [5] is: dose: 200.0 mg/kg/injection, schedule: Q01DX005 (ip), vehicle: Klucel (hydroxypropylcellulose) (HPC).
The mark [6] stands for this setting: dose: 12.5 mg/kg/injection, schedule: Q01DX005 (ip), vehicle: saline with Tween-80.
Setting [7] is: dose: 25.0 mg/kg/injection, schedule: Q01DX005 (ip), vehicle: saline with Tween-80.
[8] abbreviates: dose: 100.0 mg/kg/injection, schedule: Q04DX003 (ip), vehicle: Klucel (hydroxypropylcellulose) (HPC).
[9] abbreviates: dose: 200.0 mg/kg/injection, schedule: Q04DX003 (ip), vehicle: Klucel (hydroxypropylcellulose) (HPC).
Setting [10] is: dose: 400.0 mg/kg/injection, schedule: Q04DX003 (ip), vehicle: Klucel (hydroxypropylcellulose) (HPC).
The mark [11] stands for this setting: dose: 50.0 mg/kg/injection, schedule: Q01DX005 (ip), vehicle: saline with Tween-80.
The mark [12] stands for this setting: dose: 100.0 mg/kg/injection, schedule: Q01DX005 (ip), vehicle: saline with Tween-80.
The mark [13] stands for this setting: dose: 50.0 mg/kg/injection, schedule: Q01DX009 (ip), vehicle: Klucel (hydroxypropylcellulose) (HPC).
The mark [14] stands for this setting: dose: 60.0 mg/kg/injection, schedule: Q01DX005 (ip), vehicle: saline with Tween-80.

On to `C=C1C[C@](OC)([C@H](O)C(=O)N[C@@H](OC)[C@@H]2C[C@@H](O)C(C)(C)[C@@H](C[C@@H](COC)OC)O2)O[C@H](C)[C@@H]1C`, for which the T/C reads like this: (dose: 6.2 micrograms/kg/injection, schedule: Q01DX005 (ip), vehicle: Klucel (hydroxypropylcellulose) (HPC)) 153 % of control; (dose: 12.5 micrograms/kg/injection, schedule: Q01DX005 (ip), vehicle: Klucel (hydroxypropylcellulose) (HPC)) 152 % of control; (dose: 25.0 micrograms/kg/injection, schedule: Q01DX005 (ip), vehicle: Klucel (hydroxypropylcellulose) (HPC)) 161 % of control and 162 % of control; (dose: 50.0 micrograms/kg/injection, schedule: Q01DX005 (ip), vehicle: Klucel (hydroxypropylcellulose) (HPC)) 152 % of control.
On to `O=c1oc(-c2cccc(C(Cl)Cl)c2)ns1`, for which the T/C is 112 % of control under setting [1]; 107 % of control under setting [2]; 105 % of control (dose: 400.0 mg/kg/injection, schedule: Q01DX009 (ip), vehicle: Klucel (hydroxypropylcellulose) (HPC)).
`CC(CCN(C)C)N(C)C` (configuration not stated): the T/C was 106 % of control (dose: 50.0 mg/kg/injection, schedule: Q01DX005 (ip), vehicle: suspension in saline) and 98 % of control (dose: 100.0 mg/kg/injection, schedule: Q01DX005 (ip), vehicle: suspension in saline).
Consider `O=C(NC(CO)C(=O)N1CCCC1C(=O)OCc1ccccc1)OCc1ccccc1` (stereo not drawn) (Cbz-Ser-Pro-OBn; configuration not given here), for which the T/C by setting is: under setting [3], 96 % of control; under setting [4], 93 % of control; under setting [5], 92 % of control.
In the case of `COC(=O)[C@H]1[C@H]2C[C@@H]3c4[nH]c5ccccc5c4CCN3C[C@H]2C[C@@H](OC(=O)c2cc(OC)c(OC)c(OC)c2)[C@@H]1OC`, the T/C was 105 % of control and 123 % of control (dose: 3.13 mg/kg/injection, schedule: Q01DX005 (ip), vehicle: saline with Tween-80); 118 % of control (2×) and 124 % of control (dose: 6.25 mg/kg/injection, schedule: Q01DX005 (ip), vehicle: saline with Tween-80); 114 % of control and 118 % of control and 124 % of control under setting [6]; 111 % of control and 94 % of control and 97 % of control under setting [7].
`O=S1(=O)CCOc2ccccc2N1`: the T/C reads like this: under setting [8], 96 % of control; under setting [9], 96 % of control; under setting [10], 90 % of control.
With `CCCCCN(CCCCC)C(C)C(O)c1ccc2cc(Cl)c3ccccc3c2c1` (configuration not stated), the T/C is 99 % of control under setting [11] and 101 % of control under setting [12].
For `C(/C=C/c1cc2cc(C3=NCCN3)ccc2o1)=C\c1ccc(C2=NCCN2)cc1`, the T/C is, setting by setting: (dose: 100.0 mg/kg/injection, schedule: Q04DX003 (ip), vehicle: saline) 114 % of control; (dose: 200.0 mg/kg/injection, schedule: Q04DX003 (ip), vehicle: saline) 119 % of control; (dose: 400.0 mg/kg/injection, schedule: Q04DX003 (ip), vehicle: saline) 118 % of control.
For `Nc1ccc2ccc(N)cc2c1`, the T/C is, setting by setting: under setting [7], 105 % of control; under setting [11], 98 % of control and 104 % of control; under setting [12], 103 % of control and 113 % of control; (dose: 200.0 mg/kg/injection, schedule: Q01DX005 (ip), vehicle: saline with Tween-80) 122 % of control and 123 % of control.
Turning to `O=C(Sc1ccccc1)C1CC=CCC1` (configuration not stated), the T/C runs as follows: under setting [13], 109 % of control; under setting [1], 105 % of control.
As for `CC(=O)Nc1ncnc2c(C3OC(COC(C)=O)C(OC(C)=O)C3OC(C)=O)[nH]nc12` (configuration not stated), the T/C is 105 % of control under setting [14] and 95 % of control (dose: 120.0 mg/kg/injection, schedule: Q01DX005 (ip), vehicle: saline with Tween-80).
Turning to `CC(=O)c1ccc(N=C2c3ccccc3CN2c2ccc(C(C)=O)cc2)cc1`, the T/C is, setting by setting: under setting [11], 88 % of control; under setting [12], 89 % of control.
Regarding `C=CC1CN2CCC1CC2C(O)c1ccnc2ccccc12` (configuration not stated), the T/C reads like this: (dose: 60.0 mg/kg/injection, schedule: Q01DX005 (ip), vehicle: saline) 98 % of control; (dose: 120.0 mg/kg/injection, schedule: Q01DX005 (ip), vehicle: saline) 98 % of control.
With `CC(C)=NOc1ccc([N+](=O)[O-])cc1[N+](=O)[O-]`, the T/C runs as follows: (dose: 50.0 mg/kg/injection, schedule: Q01DX009 (ip), vehicle: saline with Tween-80) 96 % of control; (dose: 100.0 mg/kg/injection, schedule: Q01DX009 (ip), vehicle: saline with Tween-80) 108 % of control.
As to `CN1C(=O)C23CCCCN2CC12CC1(C(=O)Nc4c1ccc1c4OC=CC(C)(C)O1)C(C)(C)C2C3` (configuration not stated), the T/C runs as follows: (dose: 0.37 mg/kg/injection, schedule: Q01DX009 (ip), vehicle: Klucel (hydroxypropylcellulose) (HPC)) 100 % of control; (dose: 0.75 mg/kg/injection, schedule: Q01DX009 (ip), vehicle: Klucel (hydroxypropylcellulose) (HPC)) 102 % of control; (dose: 1.5 mg/kg/injection, schedule: Q01DX009 (ip), vehicle: Klucel (hydroxypropylcellulose) (HPC)) 100 % of control; (dose: 3.0 mg/kg/injection, schedule: Q01DX009 (ip), vehicle: Klucel (hydroxypropylcellulose) (HPC)) 100 % of control; (dose: 4.5 mg/kg/injection, schedule: Q01DX009 (ip), vehicle: Klucel (hydroxypropylcellulose) (HPC)) 96 % of control; (dose: 9.0 mg/kg/injection, schedule: Q01DX009 (ip), vehicle: Klucel (hydroxypropylcellulose) (HPC)) 98 % of control. Also, the T/C (dose: 18.0 mg/kg/injection, schedule: Q01DX009 (ip), vehicle: Klucel (hydroxypropylcellulose) (HPC)) was 100 % of control.
With `CN(C)CCNc1ccc2cc3ccc(N=Nc4ccc(N(C)C)cc4)cc3nc2c1`, the T/C is 100 % of control (dose: 100.0 mg/kg/injection, schedule: Q04DX003 (ip), vehicle: saline with Tween-80); 101 % of control (dose: 200.0 mg/kg/injection, schedule: Q04DX003 (ip), vehicle: saline with Tween-80); 103 % of control (dose: 400.0 mg/kg/injection, schedule: Q04DX003 (ip), vehicle: saline with Tween-80).
In the case of `CC1(C)C(C(=O)/C=C/c2ccccc2)C1[N+](=O)[O-]` (configuration not stated), the T/C reads like this: (dose: 50.0 mg/kg/injection, schedule: Q04DX003 (ip), vehicle: Klucel (hydroxypropylcellulose) (HPC)) 96 % of control; under setting [8], 96 % of control; under setting [9], 100 % of control; under setting [10], 101 % of control.
As to `O=C1OC(=O)C2CCCC1C2`, the T/C is, setting by setting: under setting [13], 108 % of control; under setting [1], 102 % of control; under setting [2], 102 % of control.
Consider `O=c1[nH]c(N2CCNCC2)nc2ccccc12`, for which the T/C is 102 % of control (dose: 50.0 mg/kg/injection, schedule: Q01DX009 (ip), vehicle: saline); 101 % of control (dose: 100.0 mg/kg/injection, schedule: Q01DX009 (ip), vehicle: saline); 104 % of control (dose: 200.0 mg/kg/injection, schedule: Q01DX009 (ip), vehicle: saline).
For the molecule `COc1ccc(OCCCBr)c(Br)c1`, the T/C reads like this: under setting [3], 101 % of control; under setting [4], 97 % of control; under setting [5], 104 % of control.
With `O=c1c2c(oc3ccccc13)Oc1oc3ccccc3c(=O)c1C2c1ccc2c(c1)OCO2`, the T/C runs as follows: (dose: 15.0 mg/kg/injection, schedule: Q01DX005 (ip), vehicle: saline with Tween-80) 96 % of control; (dose: 30.0 mg/kg/injection, schedule: Q01DX005 (ip), vehicle: saline with Tween-80) 92 % of control and 96 % of control; under setting [14], 91 % of control.
With `COC(=O)C1=C(N)N2C/C(=C/c3cccs3)SC2=C(C(=O)OC)C1c1cccs1` (configuration not stated), the T/C was 96 % of control under setting [6]; 91 % of control under setting [7]; 86 % of control and 91 % of control under setting [11].
On to `O=c1cc(-c2ccc(OCc3ccccc3)c(-c3c(OCc4ccccc4)cc(OCc4ccccc4)c4c(=O)cc(-c5ccc(OCc6ccccc6)cc5)oc34)c2)oc2cc(OCc3ccccc3)cc(OCc3ccccc3)c12`, for which the T/C (dose: 25.0 mg/kg/injection, schedule: Q01DX001 (ip), vehicle: saline with Tween-80) was 93 % of control; the T/C (dose: 50.0 mg/kg/injection, schedule: Q01DX001 (ip), vehicle: saline with Tween-80) is 89 % of control; the T/C (dose: 100.0 mg/kg/injection, schedule: Q01DX001 (ip), vehicle: saline with Tween-80) is 87 % of control; the T/C (dose: 200.0 mg/kg/injection, schedule: Q01DX001 (ip), vehicle: Klucel (hydroxypropylcellulose) (HPC)) was 89 % of control; the T/C (dose: 400.0 mg/kg/injection, schedule: Q01DX001 (ip), vehicle: Klucel (hydroxypropylcellulose) (HPC)) is 88 % of control.
